{"source": "patent US20150291514A1", "about": "“N-Aminosulfonyl Benzamides” (Pfizer Limited, priority 2012, published 2015)", "note": "Where a name gives a salt, the structure may show the parent alone."}
{"molecular_target": "T1, Nav1.7 (or SCN9A) channel (Homo sapiens, UniProt Q15858)", "T1 construct": "expressed in transfected cells", "T1 sequence (Q15858 whole entry)": "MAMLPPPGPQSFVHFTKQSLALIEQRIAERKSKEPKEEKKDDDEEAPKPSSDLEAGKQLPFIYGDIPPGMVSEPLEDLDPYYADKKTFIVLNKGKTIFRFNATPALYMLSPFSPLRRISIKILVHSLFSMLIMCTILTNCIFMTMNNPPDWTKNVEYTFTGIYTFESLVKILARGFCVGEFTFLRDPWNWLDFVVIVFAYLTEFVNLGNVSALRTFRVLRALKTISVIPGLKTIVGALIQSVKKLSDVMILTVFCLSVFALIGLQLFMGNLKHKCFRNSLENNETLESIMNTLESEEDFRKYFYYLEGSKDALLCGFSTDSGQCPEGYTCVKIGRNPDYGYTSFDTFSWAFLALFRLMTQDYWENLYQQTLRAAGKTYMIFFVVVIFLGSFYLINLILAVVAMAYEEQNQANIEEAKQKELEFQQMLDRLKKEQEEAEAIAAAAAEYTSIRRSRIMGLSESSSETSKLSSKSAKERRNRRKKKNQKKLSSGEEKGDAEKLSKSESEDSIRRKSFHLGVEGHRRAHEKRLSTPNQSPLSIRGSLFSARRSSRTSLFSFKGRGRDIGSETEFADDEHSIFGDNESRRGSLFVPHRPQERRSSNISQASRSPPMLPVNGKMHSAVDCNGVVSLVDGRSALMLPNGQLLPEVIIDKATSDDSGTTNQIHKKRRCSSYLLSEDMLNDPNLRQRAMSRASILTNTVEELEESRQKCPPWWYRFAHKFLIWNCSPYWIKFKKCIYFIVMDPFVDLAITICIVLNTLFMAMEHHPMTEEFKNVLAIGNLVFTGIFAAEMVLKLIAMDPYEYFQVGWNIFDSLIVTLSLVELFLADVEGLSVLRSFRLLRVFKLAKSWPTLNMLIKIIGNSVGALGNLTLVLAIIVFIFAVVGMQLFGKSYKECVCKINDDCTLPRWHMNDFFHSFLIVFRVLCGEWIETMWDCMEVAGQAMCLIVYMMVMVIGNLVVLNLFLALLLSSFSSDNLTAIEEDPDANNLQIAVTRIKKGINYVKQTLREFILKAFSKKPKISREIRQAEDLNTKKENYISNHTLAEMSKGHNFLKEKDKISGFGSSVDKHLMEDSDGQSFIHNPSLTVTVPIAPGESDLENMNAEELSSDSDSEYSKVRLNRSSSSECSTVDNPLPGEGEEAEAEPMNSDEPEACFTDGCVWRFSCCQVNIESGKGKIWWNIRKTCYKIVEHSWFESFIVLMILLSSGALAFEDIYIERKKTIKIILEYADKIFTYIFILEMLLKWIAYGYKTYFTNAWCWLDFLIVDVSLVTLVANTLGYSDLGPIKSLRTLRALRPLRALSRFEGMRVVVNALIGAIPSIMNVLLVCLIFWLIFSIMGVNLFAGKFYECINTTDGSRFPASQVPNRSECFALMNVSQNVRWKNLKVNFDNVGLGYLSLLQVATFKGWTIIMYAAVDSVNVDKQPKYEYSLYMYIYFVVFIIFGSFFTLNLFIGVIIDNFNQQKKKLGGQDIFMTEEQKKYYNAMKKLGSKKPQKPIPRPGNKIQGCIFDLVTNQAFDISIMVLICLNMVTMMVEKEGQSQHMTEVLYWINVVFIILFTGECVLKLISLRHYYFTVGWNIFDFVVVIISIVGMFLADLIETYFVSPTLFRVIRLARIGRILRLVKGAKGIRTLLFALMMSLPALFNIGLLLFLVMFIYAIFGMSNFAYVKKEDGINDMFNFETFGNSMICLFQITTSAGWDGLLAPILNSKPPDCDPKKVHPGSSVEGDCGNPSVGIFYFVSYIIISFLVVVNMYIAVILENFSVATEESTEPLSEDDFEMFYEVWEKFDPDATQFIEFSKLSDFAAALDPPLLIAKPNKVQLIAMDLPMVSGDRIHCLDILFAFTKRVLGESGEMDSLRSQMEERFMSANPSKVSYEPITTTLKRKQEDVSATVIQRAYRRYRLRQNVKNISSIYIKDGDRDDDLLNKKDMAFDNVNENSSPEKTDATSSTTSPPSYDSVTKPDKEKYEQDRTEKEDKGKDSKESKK", "experiment": "Nav1.7 (hSCN9A) PatchXpress electrophysiology assay", "assay_type": "cell-based", "details": "estimated IC50 from single point electrophysiology data; PatchXpress platform; HEK cells expressing hSCN9A, held at V1/2 of inactivation; read-out: Nav1.7 EIC50", "experimental": "The ability of the compounds of formula (I) to block the Nav1.7 (or SCN9A) channel were measured using the assay described below.\nHuman Embryonic Kidney (HEK) cells were transfected with an hSCN9A construct using lipofectamine reagent (Invitrogen), using standard techniques. Cells stably expressing the hSCN9A constructs were identified by their resistance to G-418 (400 μg/ml). Clones were screened for expression using the whole-cell voltage-clamp technique.\nHEK cells stably transfected with hSCN9A were maintained in DMEM medium supplemented with 10% heat-inactivated fetal bovine serum and 400 μg/ml G-418 in an incubator at 37° C. with a humidified atmosphere of 10% CO2. For HTS, cells were harvested from flasks by trypsinization and replated in an appropriate multi-well plate (typically 96 or 384 wells/plate) such that confluence would be achieved within 24 hours of plating. For electrophysiological studies, cells were removed from the culture flask by brief trypsinization and re-plated at low density onto glass cover slips. Cells were typically used for electrophysiological experiments within 24 to 72 hours after plating.\nCover slips containing HEK cells expressing hSCN9A were placed in a bath on the stage of an inverted microscope and perfused (approximately 1 ml/minutes) with extracellular solution of the following composition: 138 mM NaCl, 2 mM CaCl2, 5.4 mM KCl, 1mM MgCl2, 10 mM glucose, and 10 mM HEPES, pH 7.4, with NaOH. […] The osmolarity of the extracellular and intracellular solutions was 300 mOsm/kg and 295 mOsm/kg, respectively. All recordings were made at room temperature (22-24° C.) using AXOPATCH 200B amplifiers and PCLAMP software (Axon Instruments, Burlingame, Calif.).\nhSCN9A currents in HEK cells were measured using the whole-cell configuration of the patch-clamp technique (Hamill et al., 1981). Uncompensated series resistance was typically 2 to 5 mega ohms and >85% series resistance compensation was routinely achieved. As a result, voltage errors were negligible and no correction was applied. Current records were acquired at 20 to 50 KHz and filtered at 5 to 10 KHz.\nHEK cells stably transfected with hSCN9A were viewed under Hoffman contrast optics and placed in front of an array of flow pipes emitting either control or compound-containing extracellular solutions. All compounds were dissolved in dimethyl sulfoxide to make 10 mM stock solutions, which were then diluted into extracellular solution to attain the final concentrations desired. […] The voltage-dependence of inactivation was determined by applying a series of depolarizing prepulses (8 sec long in 10 mV increments) from a negative holding potential. The voltage was then immediately stepped to 0 mV to assess the magnitude of the sodium current. Currents elicited at 0 mV were plotted as a function of prepulse potential to allow estimation of the voltage at which 50% of the channels were inactivated (midpoint of inactivation or V1/2). Compounds were tested for their ability to inhibit hSCN9A sodium channels by activating the channel with a 20 msec voltage step to 0 mV following an 8 second conditioning prepulse to the empirically determined V1/2. Compound effect (% inhibition) was determined by difference in current amplitude before and after application of test compounds. For ease of comparison, “estimated IC-50” (EIC50) values were calculated from single point electrophysiology data by the following equation, (tested concentration, uM)×(100-% inhibition/% inhibition). Inhibition values <20% and >80% were excluded from the calculation.\nElectrophysiological assays were conducted with PatchXpress 7000 hardware and associated software (Molecular Devices Corp). All assay buffers and solutions were identical to those used in conventional whole-cell voltage clamp experiments described above. hSCN9A cells were grown as above to 50%-80% confluency and harvested by trypsinization. […]", "units": {"IC50": "nM"}}
{"compound": "CN(C)S(=O)(=O)NC(=O)c1ccc(Oc2ccc(Cl)c(C(F)(F)F)c2)cc1", "note": "[Example 1, 4-[4-Chloro-3-(trifluoromethyl)phenoxy]-N-[(dimethylamino)sulfonyl]benzamide diethylamine salt]", "IC50": 2600}
{"compound": "CC(C)COc1ncc(Oc2cc(F)c(C(=O)NS(=O)(=O)N(C)C)cc2F)cc1Cl", "note": "[Example 2, 4-[(5-Chloro-6-isobutoxvpvridin-3yl)oxy]-N-[(dimethylamino)sulfonyl]2,5-difluorobenzamide diethylamine salt]", "IC50": 130}
{"compound": "CNS(=O)(=O)NC(=O)c1ccc(Oc2ccc(Cl)c(C(F)(F)F)c2)cc1", "note": "[Example 3, 4-[4-chloro-3-(trifluoromethyl)phenoxy]-N-[(methylamino)sulfonyl]benzamide diethylamine salt]", "IC50": 4800}
{"compound": "COc1cc(Cl)ccc1Oc1ccc(C(=O)NS(N)(=O)=O)cc1", "note": "[Example 4, N-(aminosulfonyl)-4-(4-chloro-2-methoxyphenoxy)benzamide]", "IC50": "> 3000"}
{"compound": "COc1cc(Cl)ccc1Oc1ccc(C(=O)NS(=O)(=O)N(C)C)cc1", "note": "[Example 5, 4-(4-chloro-2-methoxyphenoxy)-N-[(dimethylamino)sulfonyl]benzamide]", "IC50": 7100}
{"compound": "COc1cc(Cl)ccc1Oc1cc(F)c(C(=O)NS(N)(=O)=O)cc1F", "note": "[Example 6, N-(aminosulfonyl)-4-(4-chloro-2-methoxvphenoxy)-2,5-difluorobenzamide]", "IC50": 7300}
{"compound": "COc1cc(Cl)ccc1Oc1cc(F)c(C(=O)NS(=O)(=O)N(C)C)cc1F", "note": "[Example 7, 4-(4-chloro-2-methoxvphenoxy)-N-[(dimethylamino)sulfonyl]-2,5-difluorobenzamide]", "IC50": "> 3000"}
{"compound": "COc1ccccc1Oc1ccc(C(=O)NS(=O)(=O)N(C)C)cc1", "note": "[Example 8, N-[(dimethylamino)sulfonyl]-4-(2-methoxyphenoxy)benzamide diethylamine salt]", "IC50": "> 30000"}
{"compound": "COc1cccc(Oc2ccc(C(=O)NS(=O)(=O)N(C)C)cc2)c1", "note": "[Example 9, N-[(dimethylamino)sulfonyl[-4-(3-methoxyphenoxy)benzamidediethylamine salt]", "IC50": "> 30000"}
{"compound": "CC(C)COc1ncc(Oc2ccc(C(=O)NS(N)(=O)=O)cc2)cc1Cl", "note": "[Example 10, N-(aminosulfonyl)-4-[(5-chloro-6-isobutoxypyridin-3-yl)oxy]benzamide diethylamine salt]", "IC50": 6300}
{"compound": "CC(C)COc1ncc(Oc2ccc(C(=O)NS(=O)(=O)N(C)C)cc2)cc1Cl", "note": "[Example 11, 4-[(5-chloro-6-isobutoxypyridin-3-yl)oxy]-N-[(dimethylamino)sulfonyl]benzamide diethylamine salt]", "IC50": 2100}
{"compound": "COc1ccccc1Oc1cc(F)c(C(=O)NS(=O)(=O)N(C)C)cc1Cl", "note": "[Example 12, 5-chloro-N-[(dimethylamino)sulfonyl]-2-fluoro-4-(2-methoxyphenoxy)benzamide diethylamine salt]", "IC50": "> 1000"}
{"compound": "COc1ccccc1Oc1cc(F)c(C(=O)NS(=O)(=O)N(C)C)cc1F", "note": "[Example 13, N-[(dimethylamino)sulfonyl]-2,5-difluoro-4-(2-methoxyphenoxy)benzamide]", "IC50": "> 1000"}
{"compound": "COc1cccc(Oc2cc(F)c(C(=O)NS(=O)(=O)N(C)C)cc2F)c1", "note": "[Example 14, N-[(dimethylamino)sulfonyl]-2,5-difluoro-4-(3-methoxyphenoxy)benzamide diethylamine salt]", "IC50": 7500}
{"compound": "NS(=O)(=O)NC(=O)c1ccc(Oc2ccc(Cl)cc2-c2ccnnc2)cc1", "note": "[Example 15, N-(aminosulfonyl)-4-(4-chloro-2-pyridazin-4-ylphenoxy)benzamide]", "IC50": "> 3000"}
{"compound": "CN(C)S(=O)(=O)NC(=O)c1ccc(Oc2ccc(Cl)cc2-c2ccnnc2)cc1", "note": "[Example 16, 4-(4-chloro-2-pyridazin-4-ylphenoxy)-N-[(dimethylamino)sulfonyl]benzamide]", "IC50": 4900}
{"compound": "[2H]C([2H])([2H])C([2H])(Oc1ncc(Oc2cc(F)c(C(=O)NS(=O)(=O)N(C)C)cc2F)cc1Cl)C([2H])([2H])[2H]", "note": "[Example 17, 4-[(5-chloro-6-isopropoxypyridin-3-yl)oxy]-N-[(dimethylamino)sulfonyl]-2,5-difluorobenzamide-d7]", "IC50": 200}
{"compound": "N#Cc1cc(C(=O)NS(N)(=O)=O)ccc1Oc1ccccc1-c1ccccc1", "note": "[Example 18, N-(aminosulfonyl)-4-(biphenyl-2-yloxy)-3-cyanobenzamide diethylamine salt]", "IC50": 34000}
{"compound": "CCNS(=O)(=O)NC(=O)c1ccc(Oc2ccccc2-c2ccccc2)c(C#N)c1", "note": "[Example 19, 4-(biphenyl-2-yloxy)-3-cyano-N-[(ethylamino)sulfonyl]benzamide diethylamine salt]", "IC50": 10000}
{"compound": "CN(C)S(=O)(=O)NC(=O)c1cc(F)c(Oc2cnc(N3CCC(F)C3)c(Cl)c2)cc1F", "note": "(centres unmarked) [Example 20, 4-{[5-chloro-6-(3-fluoropyrrolidin-1-yl)pyridine-3-yl]oxy}-N-[(dimethylamino)sulfonyl]-2,5-difluorobenzamide formate salt]", "IC50": 1200}
{"compound": "CN(C)S(=O)(=O)NC(=O)c1cc(F)c(Oc2cnc(NCC3CC3)c(Cl)c2)cc1F", "note": "[Example 21, 4-({5-chloro-6-[(cyclopropylmethyl)amino]pyridine-3-yl}oxy)-N-[(dimethylamino)sulfonyl]-2,5-difluorobenzamide formate salt]", "IC50": 600}
{"compound": "CN(C)c1ncc(Oc2cc(F)c(C(=O)NS(=O)(=O)N(C)C)cc2F)cc1Cl", "note": "[Example 22, 4-{[5-chloro-6-(dimethylamino)pyridine-3-yl]oxy}-N-[(dimethylamino)sulfonyl]-2,5-difluorobenzamide formate salt]", "IC50": 2500}
{"compound": "CN(CC1CC1)c1ncc(Oc2cc(F)c(C(=O)NS(=O)(=O)N(C)C)cc2F)cc1Cl", "note": "[Example 23, 4-({5-chloro-6-[(cyclopropylmethyl)(methyl)amino]pyridine-3-yl}oxy)-N-[(dimethylamino)sulfonyl]-2,5-difluorobenzamide formate salt]", "IC50": 670}
{"compound": "CC(C)N(C)c1ncc(Oc2cc(F)c(C(=O)NS(=O)(=O)N(C)C)cc2F)cc1Cl", "note": "[Example 24, 4-({5-chloro-6-[isopropyl(methyl)amino]pyridine-3-yl}oxy)-N-[(dimethylamino)sulfonyl]-2,5-difluorobenzamide formate salt]", "IC50": 660}
{"compound": "CNc1ncc(Oc2cc(F)c(C(=O)NS(=O)(=O)N(C)C)cc2F)cc1Cl", "note": "[Example 25, 4-{[5-chloro-6-(methylamino)pyridine-3-yl]oxy}-N-[(dimethylamino)sulfonyl]-2,5-difluorobenzamide formate salt]", "IC50": 9800}
{"compound": "CN(C)S(=O)(=O)NC(=O)c1cc(F)c(Oc2cnc(N3CCCC3)c(Cl)c2)cc1F", "note": "[Example 26, 4-[(5-chloro-6-pyrrolidin-1-ylpyridin-3-yl)oxy]-N-[(dimethylamino)sulfonyl]-2,5-difluorobenzamide formate salt]", "IC50": 480}
{"compound": "CN(C)S(=O)(=O)NC(=O)c1cc(F)c(Oc2cnc(NC34CC(C3)C4)c(Cl)c2)cc1F", "note": "[Example 28, 4-{[6-(pyridin[1.1.1]pent-1-ylamino)-5-chloropyridin-3-yl]oxy}-N-[(dimethylamino)sulfonyl]-2,5-difluorobenzamide formate salt]", "IC50": 160}
{"compound": "C[C@@H]1CCCN1c1ncc(Oc2cc(F)c(C(=O)NS(=O)(=O)N(C)C)cc2F)cc1Cl", "note": "[Example 29, 4-({5-chloro-6-[(2R)-2-methylpyrrolidin-1-yl]pyridine-3-yl}oxy)-N-[(dimethylamino)sulfonyl]-2,5-dfluorobenzamide formate salt]", "IC50": 240}
{"compound": "CC(C)Oc1ncc(Oc2cc(F)c(C(=O)NS(=O)(=O)N(C)C)cc2F)cc1Cl", "note": "[Example 30, 4-[(5-chloro-6-isopropoxypyridin-3-yl)oxy]-N-[(dimethylamino)sulfonyl]-2,5-difluorobenzamide]", "IC50": 470}
